Laboratory results reported in patent US5374711A, “Chemical modification of 2"-amino group in elsamicin a” (Bristol-Myers Squibb Company, priority 1993, dated 1994).
≈ marks a conversion by molar mass, not a printed value. Where a name gives a salt, the structure may show the parent alone.

Assays:
[1] = tested on: murine melanoma B16-F10 cells; experiment: cells; settings: Mus musculus, B16-F10, 72 h, read-out: Cytotoxicity IC50
Procedure: For in vitro cytotoxicity experiment, murine melanoma B16-F10 cells were grown and maintained in Eagle's minimum essential medium (Nissui), which contains kanamycin (60 μg/ml), supplemented with heat-inactivated fetal calf serum (10%) and nonessential amino acids (0.6%) at 37° C. under a humidified atmosphere in a 5% CO2 incubator, Exponentially growing B16-F10 cells were harvested, counted and suspended in the culture medium at the concentration of 2.0×10^4 cells/ml. The cell suspension (180 μl) was planted into wells of a 96-well microtiter plate and incubated for 24 hours. Test compounds (20 μl) were added to the wells and the plates were further incubated for 72 hours. The cytotoxic activity was colorimetrically determined at 540 nm after staining viable cells with neutral red solution.

anaerobic bacteria = settings: cited from earlier work
[2] = tested on: lymphocytic leukemia P388; experiment: In vivo antitumor activity against P388 leukemia in mice (ip, Q1Dx3); design: species or system mice (female CDF1); settings: for T/C % of MST / prolongation of life-span in the P388-bearing mice: Q1Dx3, ip; for times less active than the parent compound in terms of minimum effective doses (MED): P388, vs elsamicin A
Procedure: (§1) Among the derivatives tested, in vivo antitumor activity of six derivatives showing relatively potent cytotoxicity was tested in the lymphocytic leukemia P388 and B16 melanoma systems. Female CDF1 (for P388) and male BDF1 (for B16) mice were inoculated by ip injection at 10^6 P388 cells and 0.5 ml of a 10% B16 brei per mouse, respectively (day 0). […] The percent increase of median survival time (MST) of treated animals over that of untreated control animals was determined and reported as T/C %. Compounds showing T/C % values of 125 or greater are considered to have significant antitumor activity. […] The others had no activity at the doses tested. Derivatives 4d4e, and 5 when tested in the B16 system, also gave 10- 30 times less antitumor activity than elsamicin A in terms of MED (Table 5).

[3] = tested on: aerobic gram-positive bacteria; settings: cited from earlier work
B16 melanoma = experiment: In vivo antitumor activity against B16 melanoma in mice (ip, Q4Dx3); design: species or system mice (male BDF1); settings: for times less antitumor activity than elsamicin A in terms of MED: B16, vs elsamicin A
Procedure: as §1

leukemia P388 = settings: in vitro and in vivo; cited from earlier work
lymphoid leukemia L1210 = settings: in vitro and in vivo; cited from earlier work
melanotic melanoma B16 = settings: in vitro and in vivo; cited from earlier work

Compound | T/C % of MST ([2]; 0.1 mg/kg/day) | T/C % of MST ([2]; 0.3 mg/kg/day) | T/C % of MST ([2]; 1 mg/kg/day) | T/C % of MST ([2]; 3 mg/kg/day) | T/C % of MST ([2]; 10 mg/kg/day) | T/C % of MST (B16 melanoma; 0.3 mg/kg/day, Q4Dx3 ip) | T/C % of MST (B16 melanoma; 1 mg/kg/day, Q4Dx3 ip) | T/C % of MST (B16 melanoma; 3 mg/kg/day, Q4Dx3 ip) | T/C % of MST (B16 melanoma; 10 mg/kg/day, Q4Dx3 ip) | times less active than the parent compound in terms of minimum effective doses (MED) [2] | prolongation of life-span in the P388-bearing mice [2] | times less antitumor activity than elsamicin A in terms of MED (B16 melanoma) | also measured
CO[C@@H]1[C@@H](N)[C@@H](O[C@H]2[C@H](Oc3cccc4c(O)c5c(=O)oc6ccc(C)c7c(=O)oc(c34)c5c67)O[C@H](C)[C@H](O)[C@]2(C)O)O[C@H](C)[C@@H]1O [Compound 1, Elsamicin A] | 120% | 137% | 150% | 170% | 205% | 128% | 168% | 208% | ≥ 282% |  |  |  | IC50 [1]: 0.07 mg/L (≈ 0.107 µM); antibacterial activity (anaerobic bacteria): exhibits antibacterial activity; T/C % of MST ([2]; 20 mg/kg/day): Tox; antibacterial activity [3]: exhibits antibacterial activity; T/C % of MST (B16 melanoma; 0.1 mg/kg/day, Q4Dx3 ip): 115%; No. of survivors/tested on day 50 (B16 melanoma; 10 mg/kg/day, Q4Dx3 ip, day 50): 4/8; activity against murine tumor cells (leukemia P388): exerts activity; activity against murine tumor cells (lymphoid leukemia L1210): exerts activity; activity against murine tumor cells (melanotic melanoma B16): exerts activity
CN[C@H]1[C@@H](O[C@H]2[C@H](Oc3cccc4c(O)c5c(=O)oc6ccc(C)c7c(=O)oc(c34)c5c67)O[C@H](C)[C@H](O)[C@]2(C)O)O[C@H](C)[C@H](O)[C@@H]1OC [Compound 4d, 2"-N-Methylelsamicin A] | 100% | 100% | 120% | 130% | 145% | 106% | 100% | 115% | 135% | 10-30 times | quite limited prolongation of life-span | 10- 30 times | 
CO[C@H]1[C@@H](O)[C@@H](C)O[C@H](O[C@H]2[C@H](Oc3cccc4c(O)c5c(=O)oc6ccc(C)c7c(=O)oc(c34)c5c67)O[C@H](C)[C@H](O)[C@]2(C)O)[C@@H]1N1CCOCC1 [Compound 4f, 2"-Deamino-2"-morpholinoelsamicin A] |  |  | 100% | 105% | 100% |  |  |  |  |  |  |  | 
CO[C@H]1[C@@H](O)[C@@H](C)O[C@H](O[C@H]2[C@H](Oc3cccc4c(O)c5c(=O)oc6ccc(C)c7c(=O)oc(c34)c5c67)O[C@H](C)[C@H](O)[C@]2(C)O)[C@@H]1NC=N [Compound 5, 2"-N-Formimidoylelsamicin A hydrochloride] | 100% | 100% | 120% | 130% | 140% | 100% | 103% | 126% | 150% | 10-30 times | quite limited prolongation of life-span | 10- 30 times | 
CO[C@H]1[C@@H](O)[C@@H](C)O[C@H](O[C@H]2[C@H](Oc3cccc4c(O)c5c(=O)oc6ccc(C)c7c(=O)oc(c34)c5c67)O[C@H](C)[C@H](O)[C@]2(C)O)[C@@H]1NC(C)C [Compound 4a, 2"-N-Isopropylelsamicin A] |  |  | 110% | 120% | 140% |  |  |  |  | 10-30 times | quite limited prolongation of life-span |  | 
CO[C@H]1[C@@H](O)[C@@H](C)O[C@H](O[C@H]2[C@H](Oc3cccc4c(O)c5c(=O)oc6ccc(C)c7c(=O)oc(c34)c5c67)O[C@H](C)[C@H](O)[C@]2(C)O)[C@@H]1NC(=O)CN [Compound 3d, 2"-N-Glycylelsamicin A] |  |  | 95% | 110% | 110% |  |  |  |  |  |  |  | 
CO[C@H]1[C@@H](O)[C@@H](C)O[C@H](O[C@H]2[C@H](Oc3cccc4c(O)c5c(=O)oc6ccc(C)c7c(=O)oc(c34)c5c67)O[C@H](C)[C@H](O)[C@]2(C)O)[C@@H]1N(C)C [Compound 4e, 2"-N,N-Dimethylelsamicin A] |  |  | 110% | 130% | 140% |  | 103% | 109% | 132% | 10-30 times | quite limited prolongation of life-span | 10- 30 times | 
